Data published in patent publication US12382888B2, “Compositions and methods for modulating immunity in plants” (Boyce Thompson Institute for Plant Research, Inc., priority 2013, dated 2025).
“Also recorded” adds a separate entry of the source.

What was measured:
C. elegans = conditions: cited from earlier work; for sex pheromone activity: mixture of three ascarosides
[1] = system: Pseudomonas syringae pv. tomato DC3000 (Pst); assay: Resistance of Arabidopsis to Pseudomonas syringae pv. tomato DC3000 (bacterial growth); format: in vivo; conditions: for resistance to virulent Pst DC3000: leaf treatment at the concentration tested; for resistance to virulent Pst DC3000 (bacterial growth): leaf syringe infiltration 0.3 μM 24 hours prior to inoculation, 3 dpi
PR-1 [2] = assay: PR-1 expression in Arabidopsis leaves (semi-quantitative PCR / qRT-PCR); conditions: for PR-1 expression in Arabidopsis: leaf pretreatment by syringe infiltration, 0.01, 0.3, and 10 μM; for PR-1 expression, ascaroside alone: leaf syringe infiltration (0.01 or 0.3 μM), semi-quantitative PCR
PDF1.2 = PDF1.2 expression in Arabidopsis leaves (semi-quantitative PCR / qRT-PCR); conditions: for PDF1.2 expression in Arabidopsis: leaf pretreatment by syringe infiltration, 0.01, 0.3, and 10 μM; for PDF1.2 expression, ascaroside alone: leaf syringe infiltration (0.01 or 0.3 μM), semi-quantitative PCR
M. incognita = assay: Arabidopsis root knot nematode infection assay; format: in vivo, Meloidogyne incognita; conditions: higher concentrations than 10 nM
Heterodera schachtii = assay: Arabidopsis cyst nematode infection assay; format: in vivo; conditions: higher concentrations than 10 nM
[3] = system: ovalbumin-specific T-helper cell responses; conditions: mice; cited from earlier work
PR-1 [4] = assay: PR-1 protein/transcript induction in tobacco leaves (immunoblot, RT-PCR); conditions: low concentrations of ascaroside
Procedure: Four-weeks old tobacco plants were syringe-infiltrated with buffer, SA, or a mixture of SA (50 μM or 500 μM) and decreasing concentration of ascr #18 (10, 0.3, and 0.01 μM). PR-1 was assayed 48 hours after treatment by immunoblot using anti-PR-1 antibody.
PR-1 expression was analyzed 48 hp SA treatment.
To determine whether ascr #18 affects levels of the prototypic SA-responsive PR-1 gene/protein, tobacco plants were treated with varying concentrations of ascr #18 in the presence or absence of SA (FIG. 2).

[5] = system: asthma in a mouse model system; conditions: cited from earlier work
[6] = system: Pseudomonas syringae pv. tabaci; assay: Resistance of tobacco to Pseudomonas syringae pv. tabaci (bacterial growth); conditions: leaves treated with 250 μM SA alone
Botrytis cinerea = assay: Resistance of tomato to Botrytis cinerea B05.01 (detached leaflet assay); format: in vivo; conditions: tomato cv. M82; root immersion 0.01 μM 48 hours before
[7] = ascaroside at low concentrations in combination with SA (50 μM)
[8] = higher concentration of ascaroside with SA (50 μM)

## CC1O[C@@H](O[C@H](C)CC/C=C/C(=O)Nc2ccc(C(=O)O)cc2)C(O)C[C@H]1O (stereo partly shown) [ascr #8]
C. elegans
  sex pheromone activity: active at low nanomolar concentrations

## CC1O[C@@H](OCCCCC(=O)O)C(O)C[C@H]1O (stereo partly shown) [oscr #9]
[1]
  resistance to virulent Pst DC3000: did not significantly enhance resistance
PR-1 [2]; [7]
  SA-induced PR-1 expression: enhances PR-1 expression induced by SA
PDF1.2
  PDF1.2 expression in Arabidopsis: −

## (10R)-(3′R,5′R-dihydroxy-6′S-methyl-(2H)-tetrahydropyran-2-yloxy)-undecanoic Acid [ascr #18]
M. incognita
  infection with M. incognita: less effective
Heterodera schachtii
  infection with H. schachtii: less effective

## CC1O[C@@H](O[C@H](C)CCCC/C=C/C(=O)O)C(O)C[C@H]1O (stereo partly shown) [ascr #3]
[1]
  resistance to virulent Pst DC3000 (bacterial growth): enhanced resistance
PR-1 [2]; [7]
  SA-induced PR-1 expression: enhances PR-1 expression induced by SA
PR-1 [2]; [8]
  SA-induced PR-1 expression: reduces the SA-induced PR-1 expression
PR-1 [2]
  PR-1 expression in Arabidopsis: +
  PR-1 expression, ascaroside alone: induces PR-1 expression; also recorded: induced expression; also recorded: altered
C. elegans
  response of hermaphrodites: repels hermaphrodites
  sex pheromone activity: active at low nanomolar concentrations
PDF1.2
  PDF1.2 expression in Arabidopsis: +
  PDF1.2 expression, ascaroside alone: induces PDF1.2 expression; also recorded: induced expression; also recorded: altered
[3]
  ovalbumin-specific T-helper cell responses: no significant effect
PR-1 [4]
  PR-1 expression in tobacco cv. W38: did not significantly increase PR-1 expression

## CC1O[C@@H](O[C@H](C)CCCCC(=O)O)C(O)C[C@H]1O (stereo partly shown) [ascr #1]
[5]
  development of asthma: strongly suppressed the development of asthma

## C[C@H](CCC(=O)O)O[C@@H]1O[C@@H](C)[C@H](O)C[C@H]1O [ascr #9]
[1]
  resistance to virulent Pst DC3000: did not significantly enhance resistance
PR-1 [2]; [7]
  SA-induced PR-1 expression: enhances PR-1 expression induced by SA
PR-1 [2]; [8]
  SA-induced PR-1 expression: reduces the SA-induced PR-1 expression
PR-1 [2]
  PR-1 expression in Arabidopsis: +
  PR-1 expression, ascaroside alone: induces PR-1 expression; also recorded: induced expression; also recorded: altered
PDF1.2
  PDF1.2 expression in Arabidopsis: +
  PDF1.2 expression, ascaroside alone: induces PDF1.2 expression; also recorded: induced expression; also recorded: altered
PR-1 [4]
  PR-1 expression in tobacco cv. W38: did not significantly increase PR-1 expression

## O=C(O)c1ccccc1O [SA, salicylic acid, reference compound]
[1]; 50 μM SA alone, leaf infiltration
  protection against Pst: low level of protection
[6]
  virulent P.t. growth: reduced levels of virulent P.t. growth

## CC(=O)CC[C@@H](C)O[C@@H]1OC(C)[C@H](O)CC1O (stereo partly shown) [ascr #2, reference compound]
C. elegans
  sex pheromone activity: active at low nanomolar concentrations

## CC1O[C@@H](O[C@H](C)CCCCCCC(=O)O)C(O)C[C@H]1O (stereo partly shown) [ascr #10]
[1]
  resistance to virulent Pst DC3000: did not significantly enhance resistance
PR-1 [2]; [7]
  SA-induced PR-1 expression: enhances PR-1 expression induced by SA
PR-1 [2]
  PR-1 expression, ascaroside alone: induces PR-1 expression; also recorded: altered
C. elegans
  response of hermaphrodites: strongly attracts hermaphrodites
PDF1.2
  PDF1.2 expression, ascaroside alone: induces PDF1.2 expression; also recorded: altered
PR-1 [4]
  PR-1 expression in tobacco cv. W38: did not significantly increase PR-1 expression

## CC1O[C@@H](O[C@H](C)CCCC/C=C/C(=O)O)C(O)C[C@H]1OC(=O)c1ccc(O)cc1 (stereo partly shown) [hbas #3, reference compound]
C. elegans
  promotion of aggregation behaviors: active at femtomolar concentrations

## CC1O[C@@H](O[C@H](C)CC/C=C/C(=O)O)C(O)C[C@H]1O (stereo partly shown) [ascr #7]
[5]
  development of asthma: strongly suppressed the development of asthma
[3]
  ovalbumin-specific T-helper cell responses: strongly suppresses

## CC1O[C@@H](O[C@H](C)CCCCCCCCC(=O)NCCO)C(O)C[C@H]1O (stereo partly shown) [easc #18]
[1]
  resistance to virulent Pst DC3000 (bacterial growth): enhances resistance
Botrytis cinerea
  resistance to B. cinerea (lesion size 3 dpi): enhanced resistance
